Measured values: US12115166B2, “Corticotropin releasing factor receptor antagonists” (Spruce Biosciences, Inc., priority 2017, dated 2024)

Assays:
[1] = biological target: T1, CRF1 receptor (Homo sapiens, UniProt P34998); experiment: Phase 2 study in adults with classic CAH: hormone response (ACTH, 17-OHP, androstenedione); type: in vivo; settings: CAH patients
T1 construct: from tissue; host or cells: living human patients
T1 sequence (P34998 24-415): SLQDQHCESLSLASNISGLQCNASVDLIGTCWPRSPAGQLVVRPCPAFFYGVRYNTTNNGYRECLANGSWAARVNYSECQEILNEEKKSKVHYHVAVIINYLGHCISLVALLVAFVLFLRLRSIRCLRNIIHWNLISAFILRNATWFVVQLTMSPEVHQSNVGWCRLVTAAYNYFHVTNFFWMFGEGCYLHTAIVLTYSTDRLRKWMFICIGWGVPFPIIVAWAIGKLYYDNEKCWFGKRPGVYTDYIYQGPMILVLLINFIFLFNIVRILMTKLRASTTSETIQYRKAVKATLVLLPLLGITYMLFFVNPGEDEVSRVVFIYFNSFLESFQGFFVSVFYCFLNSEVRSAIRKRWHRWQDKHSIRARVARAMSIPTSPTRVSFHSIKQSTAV
Description: Cohort A of the Phase 2 Study includes a 6-week, multiple-dose, dose escalation study of Compound 1 for the treatment of adults with classic CAH. After screening, eligible patients will be enrolled into a 6-week treatment period followed by a 4-week washout/safety follow-up period.
This cohort will be conducted in approximately 9 patients, who will receive Compound 1 daily for up to 6 weeks. Compound 1 will be administered as an oral daily dose. Patients will undergo titration of Compound 1 through three escalating dosage strengths at 2-week intervals. […]
Patients in Cohort B will receive study drug at 200 mg BID, with a dose in the morning and a dose in the evening, either with a meal or consumption of a standardized snack. For Cohorts C and D, the dose level and the frequency and timing of dosing will be determined based on interim data from the previous cohorts. […]
Outcome Measures Primary Outcome Measure: • 1. […] To assess the efficacy of Compound 1 in subjects with classic CAH as measured by percent and absolute change in 17-OHP compared to baseline. […] To explore the dose(s) of Compound 1 that cause pharmacodynamics changes in plasma concentrations of ACTH, androstenedione, and testosterone, as measured by the absolute and percent change from baseline by dose. • 4. […]

[2] = Study 1: single-escalating oral dose pharmacokinetics in healthy adult subjects (fed, and 150 mg fasted); type: in vivo, human; settings: 50 to 800 mg, fed state; formal test inconclusive
Experimental: Study 1 was the first-in-human study that investigated the safety, tolerability, and PK of single-escalating doses of Compound 1, given orally, to healthy adult subjects. […] The data from this study were used for the selection of doses for Study 2.
In Study 1, Compound 1 was administered to healthy adult subjects as a single PO dose of 2, 10, 50, 150, 400, or 800 mg in the fed state and 150 mg in the fasted state. Absorption occurred moderately late, achieving peak Cmax between 4 to 6 hours following dosing in the fed state.
When Compound 1 was given in the fed state, median time to reach maximum plasma concentration (Tmax) occurred between 4 and 6 hours.
As part of this single-dose escalation study, a food effect PK investigation was performed to examine Compound 1 exposures in both the fed and fasted states at the 150-mg dose level. A total of 6 subjects were administered 150 mg Compound 1 in each of these 2 dosing groups. Of these 6 subjects, 4 subjects received Compound 1 at the same dose in both fed and fasted states. […] Table 6 provides a summary of the PK parameters at the 150-mg dose level under both fed and fasted state conditions.
PK parameters AUC0-∞ and Cmax were analyzed separately for dose proportionality for Compound 1 from 50 to 800 mg when administered in the fed state. […]

For CCC(CC)c1cc(C)nc2c(-c3sc(N4CCOCC4)nc3Cl)c(C)nn12 [Compound 1, 3-(4-Chloro-2-(morpholin-4-yl)thiazol-5-yl)-7-(1-ethylpropyl)-2,5-dimethylpyrazolo(1,5-a)pyrimidine], the “morning rise in A4” value [1] was “attenuates” and the “dose proportionality of Cmax” value [2] was “more than dose proportional”.
